Data taken from PubChem BioAssay AID256 (DTP/NCI, 2004).
Several values for one entry are separate records, joined by “and”; a condition that tells them apart may be missing. Equal entries are not always repeated. Toxic doses and inconclusive results are not listed. How the source made its calls: active means survival T/C of 150% or more; inactive means T/C below 125% in these data.

Tested on: CD2F1 mice, L1210 leukemia ip, survival T/C
Experiment: NCI In Vivo Anticancer Drug Screen. Data for tumor model L1210 Leukemia (intraperitoneal) in CD2F1 (CDF1) mice
Details: higher = longer survival
How it was run: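 Vehicle-treated tumor-bearing mice served as controls (C) for compound-treated mice (T). Reported figure is T divided by C.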

Measured: T/C

Cc1[nH]c(=O)[nH]c(=O)c1N(CCF)CCCl
inactive: endpoint: mean survival time, dose: 1.8 mg/kg/injection, schedule: Q01DX009 (ip), vehicle: saline 98 % of control | endpoint: mean survival time, dose: 3.0 mg/kg/injection, schedule: Q01DX009 (ip), vehicle: saline 102 % of control | endpoint: mean survival time, dose: 5.0 mg/kg/injection, schedule: Q01DX009 (ip), vehicle: saline 104 % of control | endpoint: mean survival time, dose: 8.0 mg/kg/injection, schedule: Q01DX001 (ip), vehicle: acid diluted with saline 95 % of control and 102 % of control | endpoint: mean survival time, dose: 8.0 mg/kg/injection, schedule: Q01DX001 (ip), vehicle: saline 98 % of control | endpoint: mean survival time, dose: 8.4 mg/kg/injection, schedule: Q01DX009 (ip), vehicle: saline 106 % of control | endpoint: mean survival time, dose: 8.4 mg/kg/injection, schedule: Q04DX003 (ip), vehicle: saline 108 % of control | endpoint: mean survival time, dose: 14.0 mg/kg/injection, schedule: Q01DX009 (ip), vehicle: saline 113 % of control | endpoint: mean survival time, dose: 14.0 mg/kg/injection, schedule: Q04DX003 (ip), vehicle: saline 105 % of control | endpoint: mean survival time, dose: 16.0 mg/kg/injection, schedule: Q01DX001 (ip), vehicle: acid diluted with saline 97 % of control and 100 % of control | endpoint: mean survival time, dose: 16.0 mg/kg/injection, schedule: Q01DX001 (ip), vehicle: saline 94 % of control and 100 % of control | endpoint: mean survival time, dose: 23.0 mg/kg/injection, schedule: Q01DX001 (ip), vehicle: saline 117 % of control | endpoint: mean survival time, dose: 23.0 mg/kg/injection, schedule: Q01DX009 (ip), vehicle: saline 107 % of control | endpoint: mean survival time, dose: 23.0 mg/kg/injection, schedule: Q04DX003 (ip), vehicle: saline 114 % of control | endpoint: mean survival time, dose: 32.0 mg/kg/injection, schedule: Q01DX001 (ip), vehicle: acid diluted with saline 96 % of control and 102 % of control | endpoint: mean survival time, dose: 32.0 mg/kg/injection, schedule: Q01DX001 (ip), vehicle: saline 105 % of control and 109 % of control | endpoint: mean survival time, dose: 39.0 mg/kg/injection, schedule: Q01DX001 (ip), vehicle: saline 117 % of control | endpoint: mean survival time, dose: 64.0 mg/kg/injection, schedule: Q01DX001 (ip), vehicle: acid diluted with saline 107 % of control and 110 % of control | endpoint: mean survival time, dose: 64.0 mg/kg/injection, schedule: Q01DX001 (ip), vehicle: saline 115 % of control and 120 % of control | endpoint: mean survival time, dose: 65.0 mg/kg/injection, schedule: Q01DX001 (ip), vehicle: saline 123 % of control | endpoint: median survival time, dose: 0.5 mg/kg/injection, schedule: Q03HX024 (ip), vehicle: acid diluted with saline 107 % of control | endpoint: median survival time, dose: 1.0 mg/kg/injection, schedule: Q03HX016 (ip), vehicle: acid diluted with saline 98 % of control | endpoint: median survival time, dose: 1.0 mg/kg/injection, schedule: Q03HX024 (ip), vehicle: acid diluted with saline 105 % of control | endpoint: median survival time, dose: 2.0 mg/kg/injection, schedule: Q01DX009 (ip), vehicle: acid diluted with saline 107 % of control | endpoint: median survival time, dose: 2.0 mg/kg/injection, schedule: Q03HX008 (ip), vehicle: acid diluted with saline 96 % of control | endpoint: median survival time, dose: 2.0 mg/kg/injection, schedule: Q03HX016 (ip), vehicle: acid diluted with saline 100 % of control | endpoint: median survival time, dose: 2.0 mg/kg/injection, schedule: Q03HX024 (ip), vehicle: acid diluted with saline 108 % of control | endpoint: median survival time, dose: 2.0 mg/kg/injection, schedule: Q03HX024 (oral), vehicle: acid diluted with saline 100 % of control | endpoint: median survival time, dose: 4.0 mg/kg/injection, schedule: Q01DX009 (ip), vehicle: acid diluted with saline 117 % of control | endpoint: median survival time, dose: 4.0 mg/kg/injection, schedule: Q01DX009 (sc), vehicle: acid diluted with saline 104 % of control | endpoint: median survival time, dose: 4.0 mg/kg/injection, schedule: Q03HX008 (ip), vehicle: acid diluted with saline 96 % of control | endpoint: median survival time, dose: 4.0 mg/kg/injection, schedule: Q03HX016 (ip), vehicle: acid diluted with saline 111 % of control | endpoint: median survival time, dose: 4.0 mg/kg/injection, schedule: Q03HX024 (ip), vehicle: acid diluted with saline 105 % of control | endpoint: median survival time, dose: 4.0 mg/kg/injection, schedule: Q03HX024 (oral), vehicle: acid diluted with saline 100 % of control | endpoint: median survival time, dose: 4.0 mg/kg/injection, schedule: Q04DX003 (ip), vehicle: acid diluted with saline 96 % of control | endpoint: median survival time, dose: 8.0 mg/kg/injection, schedule: Q01DX009 (ip), vehicle: acid diluted with saline 108 % of control | endpoint: median survival time, dose: 8.0 mg/kg/injection, schedule: Q01DX009 (oral), vehicle: acid diluted with saline 100 % of control | endpoint: median survival time, dose: 8.0 mg/kg/injection, schedule: Q01DX009 (sc), vehicle: acid diluted with saline 100 % of control | endpoint: median survival time, dose: 8.0 mg/kg/injection, schedule: Q03HX008 (ip), vehicle: acid diluted with saline 100 % of control | endpoint: median survival time, dose: 8.0 mg/kg/injection, schedule: Q03HX008 (oral), vehicle: acid diluted with saline 106 % of control | endpoint: median survival time, dose: 8.0 mg/kg/injection, schedule: Q03HX016 (ip), vehicle: acid diluted with saline 97 % of control | endpoint: median survival time, dose: 8.0 mg/kg/injection, schedule: Q03HX016 (oral), vehicle: acid diluted with saline 100 % of control | endpoint: median survival time, dose: 8.0 mg/kg/injection, schedule: Q03HX024 (ip), vehicle: acid diluted with saline 108 % of control | endpoint: median survival time, dose: 8.0 mg/kg/injection, schedule: Q03HX024 (oral), vehicle: acid diluted with saline 100 % of control | endpoint: median survival time, dose: 8.0 mg/kg/injection, schedule: Q04DX003 (ip), vehicle: acid diluted with saline 100 % of control | endpoint: median survival time, dose: 8.0 mg/kg/injection, schedule: Q08DX002 (ip), vehicle: acid diluted with saline 100 % of control | endpoint: median survival time, dose: 16.0 mg/kg/injection, schedule: Q01DX001 (ip), vehicle: acid diluted with saline 98 % of control | endpoint: median survival time, dose: 16.0 mg/kg/injection, schedule: Q01DX001 (sc), vehicle: acid diluted with saline 98 % of control | endpoint: median survival time, dose: 16.0 mg/kg/injection, schedule: Q01DX009 (ip), vehicle: acid diluted with saline 120 % of control | endpoint: median survival time, dose: 16.0 mg/kg/injection, schedule: Q01DX009 (oral), vehicle: acid diluted with saline 106 % of control | endpoint: median survival time, dose: 16.0 mg/kg/injection, schedule: Q01DX009 (sc), vehicle: acid diluted with saline 104 % of control | endpoint: median survival time, dose: 16.0 mg/kg/injection, schedule: Q03HX008 (ip), vehicle: acid diluted with saline 96 % of control | endpoint: median survival time, dose: 16.0 mg/kg/injection, schedule: Q03HX008 (oral), vehicle: acid diluted with saline 112 % of control | endpoint: median survival time, dose: 16.0 mg/kg/injection, schedule: Q03HX016 (ip), vehicle: acid diluted with saline 102 % of control | endpoint: median survival time, dose: 16.0 mg/kg/injection, schedule: Q03HX016 (oral), vehicle: acid diluted with saline 112 % of control | endpoint: median survival time, dose: 16.0 mg/kg/injection, schedule: Q03HX024 (oral), vehicle: acid diluted with saline 112 % of control | endpoint: median survival time, dose: 16.0 mg/kg/injection, schedule: Q04DX003 (ip), vehicle: acid diluted with saline 108 % of control | endpoint: median survival time, dose: 16.0 mg/kg/injection, schedule: Q04DX003 (oral), vehicle: acid diluted with saline 106 % of control | endpoint: median survival time, dose: 16.0 mg/kg/injection, schedule: Q08DX002 (ip), vehicle: acid diluted with saline 105 % of control | endpoint: median survival time, dose: 32.0 mg/kg/injection, schedule: Q01DX001 (ip), vehicle: acid diluted with saline 98 % of control | endpoint: median survival time, dose: 32.0 mg/kg/injection, schedule: Q01DX001 (sc), vehicle: acid diluted with saline 100 % of control | endpoint: median survival time, dose: 32.0 mg/kg/injection, schedule: Q01DX009 (oral), vehicle: acid diluted with saline 112 % of control | endpoint: median survival time, dose: 32.0 mg/kg/injection, schedule: Q03HX008 (ip), vehicle: acid diluted with saline 104 % of control | endpoint: median survival time, dose: 32.0 mg/kg/injection, schedule: Q04DX003 (ip), vehicle: acid diluted with saline 108 % of control | endpoint: median survival time, dose: 32.0 mg/kg/injection, schedule: Q04DX003 (oral), vehicle: acid diluted with saline 112 % of control | endpoint: median survival time, dose: 32.0 mg/kg/injection, schedule: Q08DX002 (ip), vehicle: acid diluted with saline 100 % of control | endpoint: median survival time, dose: 64.0 mg/kg/injection, schedule: Q01DX001 (ip), vehicle: acid diluted with saline 98 % of control | endpoint: median survival time, dose: 64.0 mg/kg/injection, schedule: Q01DX001 (oral), vehicle: acid diluted with saline 112 % of control | endpoint: median survival time, dose: 64.0 mg/kg/injection, schedule: Q01DX001 (sc), vehicle: acid diluted with saline 100 % of control | endpoint: median survival time, dose: 64.0 mg/kg/injection, schedule: Q01DX009 (oral), vehicle: acid diluted with saline 112 % of control | endpoint: median survival time, dose: 64.0 mg/kg/injection, schedule: Q04DX003 (ip), vehicle: acid diluted with saline 90 % of control | endpoint: median survival time, dose: 64.0 mg/kg/injection, schedule: Q04DX003 (oral), vehicle: acid diluted with saline 112 % of control | endpoint: median survival time, dose: 64.0 mg/kg/injection, schedule: Q08DX002 (ip), vehicle: acid diluted with saline 98 % of control | endpoint: median survival time, dose: 64.0 mg/kg/injection, schedule: Q08DX002 (oral), vehicle: acid diluted with saline 112 % of control | endpoint: median survival time, dose: 128.0 mg/kg/injection, schedule: Q01DX001 (oral), vehicle: acid diluted with saline 100 % of control | endpoint: median survival time, dose: 128.0 mg/kg/injection, schedule: Q01DX001 (sc), vehicle: acid diluted with saline 100 % of control | endpoint: median survival time, dose: 128.0 mg/kg/injection, schedule: Q04DX003 (oral), vehicle: acid diluted with saline 112 % of control | endpoint: median survival time, dose: 128.0 mg/kg/injection, schedule: Q08DX002 (oral), vehicle: acid diluted with saline 106 % of control | endpoint: median survival time, dose: 256.0 mg/kg/injection, schedule: Q01DX001 (oral), vehicle: acid diluted with saline 100 % of control | endpoint: median survival time, dose: 256.0 mg/kg/injection, schedule: Q01DX001 (sc), vehicle: acid diluted with saline 105 % of control | endpoint: median survival time, dose: 256.0 mg/kg/injection, schedule: Q04DX003 (oral), vehicle: acid diluted with saline 112 % of control | endpoint: median survival time, dose: 256.0 mg/kg/injection, schedule: Q08DX002 (oral), vehicle: acid diluted with saline 100 % of control | endpoint: median survival time, dose: 512.0 mg/kg/injection, schedule: Q01DX001 (oral), vehicle: acid diluted with saline 112 % of control
